{"source": "patent US20050148034A1", "about": "“Methods for identification of modulators of angiogenesis, compounds discovered thereby, and methods of treatment using the compounds” (priority 2002, published 2005)", "key": {"[1]": {"test_system": "umbilical vessel explant / cultured cells", "assay": "Umbilical vessel ring assays, photomicrographs of cultured cells (FIGS. 1-3)", "format": "cell-based, human", "method": "FIGS. 1(A-D). Photomicrographs of cultured cells in umbilical vessel ring assays as described in Section 6.2. A. Positive control. The explant was cultured in media+EGCF 200 μg/ml. […] B. Negative control. The explant was cultured in placental conditioned media+supplement. In the absence of EGCF, fewer cells migrated from the explant than in the positive control (A). C. Treatment Group 3. The explant was cultured in placental conditioned media+EGCF 200 μg/ml+Thalomid™ 100 μg/ml. […] D. Treatment Group 2. The explant was cultured in placental conditioned media+EGCF 200 μg/ml+Thalomid™ 10 μg/ml.\nFIGS. 2(A-C). Photomicrographs of cultured cells in umbilical vessel ring assays as described in Section 6.2. A. Control. Cells were cultured in placental conditioned media+ECGF 200 μg/ml+DMSO 1 μg/ml. B. Cells were cultured in placental conditioned media+ECGF 200 μg/ml+DMSO 1 μg/ml+Thalomid™ 1 μg/ml. […]. Cells were cultured in placental conditioned media+ECGF 200 μg/ml+DMSO 1 μg/ml+Thalomid™ 10 μg/ml.\nFIGS. 3(A-B). Photomicrographs of cultured cells in umbilical vessel ring assays as described in Section 6. A. Control. Cells were cultured in placental conditioned media+DMSO. […] B. Cells were cultured in placental conditioned media+DMSO+Thalomid™.\n(§1) Embryonic-like stem cells were isolated from placenta as described above in Section 5.4. The embryonic-like stem cells were cultured using the culture conditions described above."}, "[2]": {"test_system": "embryonic-like stem cells derived from placenta", "assay": "Marker expression of cultured embryonic-like stem cells (staining score, Table 2)", "format": "cell-based, human", "set-up": "key to SMC-specific Myosin HC / GFAP / CD34+ / CD45+: −: no staining; +/−: <20% staining; +: 20-50% staining; ++: 50-75% staining; +++: >75% staining", "settings": "for CD34+ / CD45+ / GFAP / Nestin / SMC-specific Myosin HC: placental conditioned media, fourteen days of culture", "method": "The following experiments evaluated the effects of Thalomid™, Actimid™ and Revimid™ on the morphological differentiation of embryonic-like stem cells derived from placenta. The morphological differentiation of cultured embryonic-like stem cells was evaluated after fourteen days of culture in the presence of placental conditioned medium and with DMSO (control), EGCF, Thalomid™, Actimid™ or Revimid™.\nas §1\n(§2) The cells were scored for the expression of CD34 (a marker of early hematopoietic progenitor cells; also an endothelial cell marker), CD45 (a marker of all hematopoietic cells except erythrocytes), CD105 (a marker of proliferating endothelial cells), smooth muscle cell (SMC)-specific myosin heavy chain, nestin ([…]), and glial fibrillary acidic protein (GFAP). Ratios of CD34 cells/TNC (Total Number of Cells), CD45 cells/TNC and CD105 cells/TNC were also determined.\nIn Table 2, the scoring was as follows: • −: no staining; +/−: <20% staining+: 20-50% staining; ++: 50-75% staining; +++: >75% staining."}, "[3]": {"test_system": "embryonic-like stem cells derived from placenta", "assay": "Total vessel area/field and branching/bifurcation of cultured placental embryonic-like stem cells (Table 4)", "format": "cell-based, human", "set-up": "key to Branching/Bifurcation (+/−): +: a branch or bifurcation was observed; −: no branch or bifurcation was observed", "method": "In another experiment, the results of which are summarized in Table 4, embryonic-like stem cells derived from placenta were cultured, using the culture conditions described above, and in the presence of EGCF, DMSO, Thalomid™, Actimid™ or Revimid™.\nA “+” means that a branch or bifurcation was observed and a “−” means that no branch or bifurcation was observed. […] See also FIGS. 3A, 3B"}, "rat aortic rings": {"test_system": "rat aortic rings", "assay": "Rat aortic angiogenesis assay", "format": "cell-based, Sprague Dawley rats", "method": "Twelve well tissue culture grade plates were covered with 250 μl of Matrigel and allowed to gel for 30-45 min at 370 C, 5% Co2. Thoracic aortas were excised from eight to ten week old male Sprague Dawley rats and the fibroadipose tissue was removed. The aortas were sectioned into 1 mm long sections, rinsed eight times with EGM-2 (Clonetics Corp), placed on the Matrigel coated wells, covered with additional 250 μl Matrigel, and allowed to gel for 30-45 min at 370 C. The rings were cultured for 24 hours in 2 ml of EGM-2. After 24 hours, recombinant murine endostatin was reconstituted in EBM and added as a single treatment on day 1. Thalidomide was added at different concentrations (1 μg/ml, 5 μg/ml, 10 μg/ml, 50 μg/ml and 100 μg/ml) in the presence or absence of rabbit microsomes as noted in the Table 5. Aortic rings were photographed on days."}, "[4]": {"test_system": "embryonic-like stem cells derived from placenta", "assay": "Immunostaining for CD34, CD45 and CD105 in cultured placental stem cells (ratios to TNC, Table 3)", "format": "cell-based, human", "settings": "for CD34/TNC / CD45/TNC / CD105/TNC: placental conditioned media, 14 days in culture", "method": "as §2\nIn another experiment, the results of which are summarized in Table 3, embryonic-like stem cells derived from placenta were cultured, using the conditions described in the umbilical vessel ring assay described above, in the presence of placenta-conditioned medium with DMSO (negative control), Thalomid™, Actimid™ or Revimid™. After 14 days in culture, the cells were then immunostained for expression of CD34+, CD45+ and CD 105+."}}, "data": [{"compound": "O=C1CCC(N2C(=O)c3ccccc3C2=O)C(=O)N1", "note": "(centres unmarked) [Thalomid, thalidomide, reference compound]", "values": [{"measurement": "cell phenotype (branching / non-branching)", "setting": "[1]; placental conditioned media + DMSO (FIG. 3)", "result": "More cells exhibit a branching (e.g., neuronal) phenotype than in the control"}, {"measurement": "number of cells seen", "setting": "[1]; placental conditioned media + ECGF 200 μg/ml + DMSO 1 μg/ml + 1 μg/ml (FIG. 2)", "result": "Fewer cells are seen than in the control"}, {"measurement": "number of cells seen", "setting": "[1]; placental conditioned media + ECGF 200 μg/ml + DMSO 1 μg/ml + 10 μg/ml (FIG. 2)", "result": "Fewer cells are seen than in the control (A) or in (B)"}, {"measurement": "cell migration from the explant and outgrowth", "setting": "[1]; placental conditioned media + EGCF 200 μg/ml + 10 μg/ml (FIG. 1D)", "result": "cells migrated a shorter distance from the explant and they exhibited less dense outgrowth than in the positive control"}, {"measurement": "cell migration from the explant", "setting": "[1]; placental conditioned media + EGCF 200 μg/ml + 100 μg/ml (FIG. 1C)", "result": "cells migrated a shorter distance from the explant than in the positive control"}, {"measurement": "CD34+", "setting": "[2]; 10 μg/mL", "result": "+/− (<20% staining)"}, {"measurement": "CD45+", "setting": "[2]; 10 μg/mL", "result": "+ (20-50% staining)"}, {"measurement": "GFAP", "setting": "[2]; 10 μg/mL", "result": "−"}, {"measurement": "Nestin", "setting": "[2]; 10 μg/mL", "result": "+ (20-50% staining)"}, {"measurement": "SMC-specific Myosin HC", "setting": "[2]; 10 μg/mL", "result": "−"}, {"measurement": "CD34+", "setting": "[2]; 100 μg/mL", "result": "−"}, {"measurement": "CD45+", "setting": "[2]; 100 μg/mL", "result": "+ (20-50% staining)"}, {"measurement": "GFAP", "setting": "[2]; 100 μg/mL", "result": "+ (20-50% staining)"}, {"measurement": "Nestin", "setting": "[2]; 100 μg/mL", "result": "+ (20-50% staining)"}, {"measurement": "SMC-specific Myosin HC", "setting": "[2]; 100 μg/mL", "result": "−"}, {"measurement": "numbers of cells expressing CD34, CD45 and smooth muscle cell (SMC)-specific myosin heavy chain", "setting": "[2]; summary of Table 2", "result": "decreased"}, {"measurement": "numbers of cells expressing nestin and glial fibrillary acidic protein (GFAP)", "setting": "[2]; summary of Table 2", "result": "increased"}, {"measurement": "Branching/Bifurcation (+/−)", "setting": "[3]; 1 μg/ml", "result": "−"}, {"measurement": "Total Vessel Area/Field (% Coverage)", "setting": "[3]; 1 μg/ml", "result": "24.1 +/− 4.4 % Coverage"}, {"measurement": "Branching/Bifurcation (+/−)", "setting": "[3]; 10 μg/ml", "result": "−"}, {"measurement": "Total Vessel Area/Field (% Coverage)", "setting": "[3]; 10 μg/ml", "result": "14.8 +/− 7.2 % Coverage"}, {"measurement": "branching and/or bifurcation exhibited by the cells", "setting": "[3]; summary of Table 4", "result": "decreases the branching and/or bifurcation exhibited by the cells"}, {"measurement": "total vessel area/field covered by the cells", "setting": "[3]; summary of Table 4", "result": "decrease in the total vessel area/field covered by the cells"}, {"measurement": "mean microvessel growth (% of control)", "setting": "rat aortic rings; 10 μg/ml, + Rabbit microsomes", "result": "16.6 % of control"}, {"measurement": "mean microvessel growth (% of control)", "setting": "rat aortic rings; 10 μg/ml, without microsomes", "result": "60 % of control"}, {"measurement": "mean microvessel growth (% of control)", "setting": "rat aortic rings; 50 μg/ml, + Rabbit microsomes", "result": "17.6 % of control"}, {"measurement": "mean microvessel growth (% of control)", "setting": "rat aortic rings; 50 μg/ml, without microsomes", "result": "82 % of control"}, {"measurement": "need of rabbit microsomes for inhibition of vessel formation", "setting": "rat aortic rings; summary of Table 5", "result": "requires the addition of rabbit microsome in order to show efficient inhibition of vessel formation"}, {"measurement": "CD34/TNC", "setting": "[4]; 10 μg/ml", "result": 0.64}, {"measurement": "CD45/TNC", "setting": "[4]; 10 μg/ml", "result": 3.87}, {"measurement": "CD105/TNC", "setting": "[4]; 10 μg/ml", "result": 6.8}, {"measurement": "CD34/TNC", "setting": "[4]; 100 μg/ml", "result": 0.38}, {"measurement": "CD45/TNC", "setting": "[4]; 100 μg/ml", "result": 4.21}, {"measurement": "CD105/TNC", "setting": "[4]; 100 μg/ml", "result": 7.0}, {"measurement": "numbers of cells expressing CD34, CD45 and CD 105", "setting": "[4]; summary of Table 3", "result": "decrease"}]}]}
